From publication PMC10313368 (The Journal of Clinical Investigation, 2023)

Legend:
[1] = target: HIF-1α (Homo sapiens, UniProt Q16665); assay: Immunoblot of HIF-1α accumulation in MIO-M1 cells cultured in hypoxia; type: cell-based; design: endogenous in cells; host or cells: MIO-M1
Description: MIO-M1, HUVECs, and ARPE19 cells were cultured in DMEM with 10% (vol/vol) FBS (Quality Biological) and 1% penicillin/streptomycin (Cellgro). A hypoxic chamber (Coy Laboratory Product Inc.; Two Glove Model) with 5% CO2, 94% N2, and 1% O2 gas concentration at 37°C was used to culture hypoxic cells. The control cells were cultured in an incubator maintained at 37°C, with 21% O2 and 5% CO2. […] Aflibercept was obtained from the Johns Hopkins University Pharmacy.
Immunoblot assays. Cells, neurosensory retina, and D120 retinal organoid lysates were subjected
to 4–15% gradient SDS/PAGE (Invitrogen). Immunoblot (Western blot or WB) assays were
performed as previously described (1). […]

[2] = tested on: HUVECs; assay: mRNA angiogenesis array (TaqMan Array qPCR) in HUVECs; type: cell-based, human; design: ANG,RNASE4, array raw value (Figure 8B, well A10) / GAPDH, array raw value (Figure 8B, well A2) / EDIL3, array raw value (Figure 8B, well B2) / FGF1, array raw value (Figure 8B, well B4) / TIMP2, array raw value (Figure 8B, well E10) / SEMA3F, array raw value (Figure 8B, well E6) / CEACAM1, array raw value (Figure 8B, well F2) / LYVE1, array raw value (Figure 8B, well F6): scale not given here
Description: Angiogenesis array. Total RNA was isolated from MIO-MI cells (8 hours) and HUVECs (16 […]
cDNA was prepared with QuantiTect® Reverse Transcription Kit (Qiagen, Cat# 205311). RT-qPCR assay was performed with pre-configured TaqMan Array 96-Well FAST Plate for human angiogenic gene expression (Applied Biosystems, Inc) following the manufacture’s protocol. Each plate contains pre-defined genes including 18S, GAPDH and HPRT1 endogenous controls.
TaqMan Array plates were prepared by loading on each well 5 μl of cDNA sample (30 ng) with nuclease-free water and 5 μl of TaqMan™ Fast Advanced Master Mix (Applied Biosystem, Cat# […]
4444554). The reaction was performed using the QuantStudio™ 3 Flex Real‐Time PCR System as follows: 2 minutes at 50°C (stage 1); 10 minutes at 95°C (stage 2); 15 seconds at 95°C and 1 minutes at 60°C for 40 cycles (stage 3). The data were analyzed by using HPRT1 as endogenous […]
The clustering heatmaps were produced with “pheatmap” library in R with scale = row and clustering method = complete.
HUVEC cells, Euclidean distance was used to quantify the difference in qPCR screening. The Euclidean distance was calculated using “dist” function from R’s default stat library that measures the distance between 2 vectors (i.e., total qPCR expression values in control and treatment). In […]

HIF-1α, sequence (Q16665 whole entry): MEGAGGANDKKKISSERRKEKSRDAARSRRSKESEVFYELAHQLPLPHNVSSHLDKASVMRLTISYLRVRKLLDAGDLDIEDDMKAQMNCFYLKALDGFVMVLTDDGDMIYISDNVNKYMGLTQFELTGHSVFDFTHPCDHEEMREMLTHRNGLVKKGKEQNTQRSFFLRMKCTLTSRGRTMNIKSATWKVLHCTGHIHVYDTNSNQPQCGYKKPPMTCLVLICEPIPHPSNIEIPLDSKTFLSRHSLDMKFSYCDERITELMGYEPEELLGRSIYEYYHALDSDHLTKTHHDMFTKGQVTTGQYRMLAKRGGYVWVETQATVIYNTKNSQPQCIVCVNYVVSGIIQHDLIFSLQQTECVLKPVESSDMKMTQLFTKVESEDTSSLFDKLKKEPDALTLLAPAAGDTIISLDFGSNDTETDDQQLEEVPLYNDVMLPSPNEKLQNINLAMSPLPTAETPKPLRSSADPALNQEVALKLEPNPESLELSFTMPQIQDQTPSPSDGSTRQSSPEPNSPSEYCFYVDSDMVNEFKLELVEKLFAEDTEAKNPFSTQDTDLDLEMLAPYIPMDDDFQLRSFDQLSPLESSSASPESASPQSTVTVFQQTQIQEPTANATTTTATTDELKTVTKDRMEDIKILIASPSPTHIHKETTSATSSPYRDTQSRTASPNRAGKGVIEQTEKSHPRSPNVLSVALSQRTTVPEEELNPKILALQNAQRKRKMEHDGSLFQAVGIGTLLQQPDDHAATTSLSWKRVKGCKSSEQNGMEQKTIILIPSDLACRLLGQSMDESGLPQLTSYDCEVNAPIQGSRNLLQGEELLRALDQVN

Compound: Brc1ccc2c(-c3csc(-c4c[nH]c5c(Br)cccc45)n3)c[nH]c2c1 [32-134D, 4-(6-bromo-1H-indol-3-yl)-2-(7-bromo-1H-indol-3-yl)thiazole]
- HIF-1α protein accumulation in response to hypoxia ([1]; MIO-M1, 1 μM 32-134D, 1% O2 4 hours): decreased
- persistence of effect on HIF-1α accumulation after treatment ([1]; MIO-M1, 10 μM, hypoxia 1 to 24 hours): up to 16 hours
- IC50 ([1]; MIO-M1 cells cultured in hypoxia, read-out: IC50, HIF-1α protein accumulation (quantitation of immunoblots)): 3.5 µM
- 18S, array raw value (Figure 8B, well A1) ([2]; HUVEC, 1%O2+32-134D): 20.1818
- ADAMTS1, array raw value (Figure 8B, well D10) ([2]; HUVEC, 1%O2+32-134D): 29.7994
- AMOT, array raw value (Figure 8B, well D12) ([2]; HUVEC, 1%O2+32-134D): 39.0386
- ANG,RNASE4, array raw value (Figure 8B, well A10) ([2]; HUVEC, 1%O2+32-134D): 28.1406
- ANGPT1, array raw value (Figure 8B, well A11) ([2]; HUVEC, 1%O2+32-134D): 30.8384
- ANGPT2, array raw value (Figure 8B, well A12) ([2]; HUVEC, 1%O2+32-134D): 32.8047
- ANGPTL2, array raw value (Figure 8B, well E12) ([2]; HUVEC, 1%O2+32-134D): 30.2341
- ANGPTL4, array raw value (Figure 8B, well H5) ([2]; HUVEC, 1%O2+32-134D): 21.86
- CD44, array raw value (Figure 8B, well E1) ([2]; HUVEC, 1%O2+32-134D): 23.3811
- CDH5, array raw value (Figure 8B, well E2) ([2]; HUVEC, 1%O2+32-134D): 24.9237
- CEACAM1, array raw value (Figure 8B, well F2) ([2]; HUVEC, 1%O2+32-134D): 29.9396
- COL4A1, array raw value (Figure 8B, well G2) ([2]; HUVEC, 1%O2+32-134D): 30.6479
- COL4A2, array raw value (Figure 8B, well G3) ([2]; HUVEC, 1%O2+32-134D): 28.7346
- COL18A1, array raw value (Figure 8B, well G6) ([2]; HUVEC, 1%O2+32-134D): 29.7073
- CSF3, array raw value (Figure 8B, well H1) ([2]; HUVEC, 1%O2+32-134D): 33.4203
- CTGF, array raw value (Figure 8B, well C10) ([2]; HUVEC, 1%O2+32-134D): 23.3834
- CXCL2, array raw value (Figure 8B, well E3) ([2]; HUVEC, 1%O2+32-134D): 30.6168
- CXCL10, array raw value (Figure 8B, well D5) ([2]; HUVEC, 1%O2+32-134D): 36.21
- EDIL3, array raw value (Figure 8B, well B2) ([2]; HUVEC, 1%O2+32-134D): 26.4682
- EPHB2, array raw value (Figure 8B, well B3) ([2]; HUVEC, 1%O2+32-134D): 28.307
- FGF1, array raw value (Figure 8B, well B4) ([2]; HUVEC, 1%O2+32-134D): 29.8889
- FGF2, array raw value (Figure 8B, well B5) ([2]; HUVEC, 1%O2+32-134D): 30.0294
- FIGF, array raw value (Figure 8B, well F12) ([2]; HUVEC, 1%O2+32-134D): 33.3841
- FLT1, array raw value (Figure 8B, well E5) ([2]; HUVEC, 1%O2+32-134D): 30.21
- FN1, array raw value (Figure 8B, well G7) ([2]; HUVEC, 1%O2+32-134D): 28.5669
- FOXC2, array raw value (Figure 8B, well G1) ([2]; HUVEC, 1%O2+32-134D): 27.8513
- FST, array raw value (Figure 8B, well B7) ([2]; HUVEC, 1%O2+32-134D): 31.5936
- GAPDH, array raw value (Figure 8B, well A2) ([2]; HUVEC, 1%O2+32-134D): 20.3521
- GRN, array raw value (Figure 8B, well H2) ([2]; HUVEC, 1%O2+32-134D): 22.2393
- GUSB, array raw value (Figure 8B, well A4) ([2]; HUVEC, 1%O2+32-134D): 25.0498
- HEY1, array raw value (Figure 8B, well F3) ([2]; HUVEC, 1%O2+32-134D): 34.3049
- HPRT1, array raw value (Figure 8B, well A3) ([2]; HUVEC, 1%O2+32-134D): 25.0367
- HSPG2, array raw value (Figure 8B, well G5) ([2]; HUVEC, 1%O2+32-134D): 27.52
- IFNB1, array raw value (Figure 8B, well D3) ([2]; HUVEC, 1%O2+32-134D): 35.432
- IL8, array raw value (Figure 8B, well B9) ([2]; HUVEC, 1%O2+32-134D): 26.4133
- IL12A, array raw value (Figure 8B, well D6) ([2]; HUVEC, 1%O2+32-134D): 34.4259
- ITGA4, array raw value (Figure 8B, well D2) ([2]; HUVEC, 1%O2+32-134D): 28.3072
- ITGAV, array raw value (Figure 8B, well F4) ([2]; HUVEC, 1%O2+32-134D): 26.1181
- ITGB3, array raw value (Figure 8B, well H6) ([2]; HUVEC, 1%O2+32-134D): 25.3974
- KDR, array raw value (Figure 8B, well F10) ([2]; HUVEC, 1%O2+32-134D): 30.1984
- LYVE1, array raw value (Figure 8B, well F6) ([2]; HUVEC, 1%O2+32-134D): 34.6146
- MDK, array raw value (Figure 8B, well B11) ([2]; HUVEC, 1%O2+32-134D): 23.8862
- MMP2, array raw value (Figure 8B, well A9) ([2]; HUVEC, 1%O2+32-134D): 21.2904
- NRP1, array raw value (Figure 8B, well H10) ([2]; HUVEC, 1%O2+32-134D): 28.4453
- NRP2, array raw value (Figure 8B, well F9) ([2]; HUVEC, 1%O2+32-134D): 25.1088
- PDGFB, array raw value (Figure 8B, well C1) ([2]; HUVEC, 1%O2+32-134D): 28.0672
- PECAM1, array raw value (Figure 8B, well F5) ([2]; HUVEC, 1%O2+32-134D): 23.24
- PF4, array raw value (Figure 8B, well D8) ([2]; HUVEC, 1%O2+32-134D): 38.4479
- PLG, array raw value (Figure 8B, well A6) ([2]; HUVEC, 1%O2+32-134D): 36.8052
- PROX1, array raw value (Figure 8B, well H12) ([2]; HUVEC, 1%O2+32-134D): 31.6234
- PTN, array raw value (Figure 8B, well C2) ([2]; HUVEC, 1%O2+32-134D): 36.9532
- S1PR1, array raw value (Figure 8B, well H11) ([2]; HUVEC, 1%O2+32-134D): 25.2945
- SEMA3F, array raw value (Figure 8B, well E6) ([2]; HUVEC, 1%O2+32-134D): 31.8531
- SERPINB5, array raw value (Figure 8B, well E4) ([2]; HUVEC, 1%O2+32-134D): 36.9759
- SERPINC1, array raw value (Figure 8B, well A7) ([2]; HUVEC, 1%O2+32-134D): 34.8884
- SERPINF1, array raw value (Figure 8B, well D7) ([2]; HUVEC, 1%O2+32-134D): 37.5691
- TEK, array raw value (Figure 8B, well E7) ([2]; HUVEC, 1%O2+32-134D): 27.2772
- TGFA, array raw value (Figure 8B, well C4) ([2]; HUVEC, 1%O2+32-134D): 29.7382
- TGFB1, array raw value (Figure 8B, well C5) ([2]; HUVEC, 1%O2+32-134D): 24.01
- THBS1, array raw value (Figure 8B, well C12) ([2]; HUVEC, 1%O2+32-134D): 23.1291
- TIE1, array raw value (Figure 8B, well E8) ([2]; HUVEC, 1%O2+32-134D): 30.7653
- TIMP2, array raw value (Figure 8B, well E10) ([2]; HUVEC, 1%O2+32-134D): 25.4299
- TIMP3, array raw value (Figure 8B, well E11) ([2]; HUVEC, 1%O2+32-134D): 25.8838
- TNFSF15, array raw value (Figure 8B, well D1) ([2]; HUVEC, 1%O2+32-134D): 25.7168
- TNMD, array raw value (Figure 8B, well E9) ([2]; HUVEC, 1%O2+32-134D): 37.1045
- TYMP, array raw value (Figure 8B, well B12) ([2]; HUVEC, 1%O2+32-134D): 39.1978
- VASH1, array raw value (Figure 8B, well D9) ([2]; HUVEC, 1%O2+32-134D): 30.8647
- VEGFA, array raw value (Figure 8B, well C7) ([2]; HUVEC, 1%O2+32-134D): 30.4927
- VEGFB, array raw value (Figure 8B, well C8) ([2]; HUVEC, 1%O2+32-134D): 27.5522
- VEGFC, array raw value (Figure 8B, well C9) ([2]; HUVEC, 1%O2+32-134D): 27.3225
- ANGPTL4 mRNA (angiogenesis array, Figure 8C) ([2]; HUVEC, Hy+32-134D, Normal = 1): 35.2355
- COL4A1 mRNA (angiogenesis array, Figure 8C) ([2]; HUVEC, Hy+32-134D, Normal = 1): 3.543
- COL4A2 mRNA (angiogenesis array, Figure 8C) ([2]; HUVEC, Hy+32-134D, Normal = 1): 2.168
- CTGF mRNA (angiogenesis array, Figure 8C) ([2]; HUVEC, Hy+32-134D, Normal = 1): 3.12
- EPHB2 mRNA (angiogenesis array, Figure 8C) ([2]; HUVEC, Hy+32-134D, Normal = 1): 2.119
- HSPG2 mRNA (angiogenesis array, Figure 8C) ([2]; HUVEC, Hy+32-134D, Normal = 1): 1.339
- ITGB3 mRNA (angiogenesis array, Figure 8C) ([2]; HUVEC, Hy+32-134D, Normal = 1): 3.6621
- MMP2 mRNA (angiogenesis array, Figure 8C) ([2]; HUVEC, Hy+32-134D, Normal = 1): 3.052
- PDGFB mRNA (angiogenesis array, Figure 8C) ([2]; HUVEC, Hy+32-134D, Normal = 1): 2.63
- PROX1 mRNA (angiogenesis array, Figure 8C) ([2]; HUVEC, Hy+32-134D, Normal = 1): 2.021
- TGFA mRNA (angiogenesis array, Figure 8C) ([2]; HUVEC, Hy+32-134D, Normal = 1): 2.2277
- TGFB1 mRNA (angiogenesis array, Figure 8C) ([2]; HUVEC, Hy+32-134D, Normal = 1): 1.578
- TNMD mRNA (angiogenesis array, Figure 8C) ([2]; HUVEC, Hy+32-134D, Normal = 1): 1.388
- VEGFA mRNA (angiogenesis array, Figure 8C) ([2]; HUVEC, Hy+32-134D, Normal = 1): 4.067
- VEGFC mRNA (angiogenesis array, Figure 8C) ([2]; HUVEC, Hy+32-134D, Normal = 1): 3.879
- reduction in the Euclidean distance between control and hypoxic cell angiogenic gene expression ([2]; HUVECs, from 209 to 35): 83%
